# Laboratory results reported in patent US12162890B2 (Novartis AG, priority 2015, dated 2024).
# Molecular target: HEK293 cells with stable expression of the GRIN1 gene and tetracycline-inducible expression of the GRIN2B gene (NMDA receptor, NR2B) (Homo sapiens, UniProt Q13224)
# Assay: Fluo-8 Ca2+ flux assay: reversal of Ro 25-6981-mediated suppression of the Ca2+ response to co-agonist (glutamate/glycine); note: test concentration or dose not given here
# Type: cell-based
# Conditions: reversal of the Ro 25-6981 suppression of the Ca2+ response to co-agonist (glutamate/glycine)
# HEK293 cells with stable expression of the GRIN1 gene and tetracycline-inducible expression of the GRIN2B gene (NMDA receptor, NR2B), sequence (Q13224 27-1484, other chains not shown): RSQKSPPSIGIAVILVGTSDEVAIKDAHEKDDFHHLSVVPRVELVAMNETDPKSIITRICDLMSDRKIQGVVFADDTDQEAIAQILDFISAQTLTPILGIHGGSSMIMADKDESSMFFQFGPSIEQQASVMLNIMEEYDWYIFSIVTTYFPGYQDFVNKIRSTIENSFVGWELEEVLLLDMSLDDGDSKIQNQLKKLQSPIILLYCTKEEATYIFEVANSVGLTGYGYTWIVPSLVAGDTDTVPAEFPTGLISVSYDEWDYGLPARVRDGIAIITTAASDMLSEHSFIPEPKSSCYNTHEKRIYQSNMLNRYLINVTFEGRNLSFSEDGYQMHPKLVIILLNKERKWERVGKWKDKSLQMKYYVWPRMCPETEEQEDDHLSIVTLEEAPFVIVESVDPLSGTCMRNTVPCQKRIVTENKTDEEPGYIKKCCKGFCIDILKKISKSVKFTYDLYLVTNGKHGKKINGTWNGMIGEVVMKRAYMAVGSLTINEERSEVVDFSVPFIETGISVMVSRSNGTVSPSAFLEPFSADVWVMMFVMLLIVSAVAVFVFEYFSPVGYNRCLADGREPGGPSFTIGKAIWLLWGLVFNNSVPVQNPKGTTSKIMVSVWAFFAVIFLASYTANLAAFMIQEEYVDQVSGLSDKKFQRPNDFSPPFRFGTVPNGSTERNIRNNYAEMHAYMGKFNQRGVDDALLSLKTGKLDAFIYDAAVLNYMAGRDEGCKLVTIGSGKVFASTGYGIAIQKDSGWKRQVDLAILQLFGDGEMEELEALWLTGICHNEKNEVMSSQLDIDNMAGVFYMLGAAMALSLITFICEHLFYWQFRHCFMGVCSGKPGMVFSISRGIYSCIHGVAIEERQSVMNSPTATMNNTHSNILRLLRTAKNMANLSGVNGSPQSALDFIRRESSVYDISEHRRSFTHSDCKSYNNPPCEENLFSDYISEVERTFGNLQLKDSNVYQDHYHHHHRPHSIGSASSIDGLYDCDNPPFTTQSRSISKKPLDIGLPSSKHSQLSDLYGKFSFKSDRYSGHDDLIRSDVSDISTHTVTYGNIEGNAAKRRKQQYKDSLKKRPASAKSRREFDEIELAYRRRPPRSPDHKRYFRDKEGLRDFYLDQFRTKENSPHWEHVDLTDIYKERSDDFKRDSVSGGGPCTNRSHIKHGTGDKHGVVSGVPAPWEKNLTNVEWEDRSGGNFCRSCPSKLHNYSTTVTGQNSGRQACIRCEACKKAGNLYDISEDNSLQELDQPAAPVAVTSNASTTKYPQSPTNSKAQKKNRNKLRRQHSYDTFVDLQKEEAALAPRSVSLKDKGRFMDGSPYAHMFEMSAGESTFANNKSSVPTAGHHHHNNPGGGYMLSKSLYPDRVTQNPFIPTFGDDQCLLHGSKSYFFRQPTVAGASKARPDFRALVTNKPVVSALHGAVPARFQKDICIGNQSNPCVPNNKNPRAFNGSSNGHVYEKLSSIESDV
row,SMILES,Response Recovered (%)
1,"O=C(Cn1ccn2ccc(-c3cnc(Cl)c(Cl)c3)c2c1=O)N1CC(F)(CF)C1 [Example 406, 8-(5,6-dichloropyridin-3-yl)-2-(2-(3-fluoro-3-(fluoromethyl)azetidin-1-yl)-2-oxoethyl)pyrrolo[1,2-a]pyrazin-1(2H)-one]",85%
2,"Cc1cn(CC(=O)N2CC(C)(F)C2)c(=O)c2c(-c3ccc(Cl)c(Cl)c3)ccn12 [Example 419, 8-(3,4-dichlorophenyl)-2-(2-(3-fluoro-3-methylazetidin-1-yl)-2-oxoethyl)-4-methylpyrrolo[1,2-a]pyrazin-1(2H)-one]",110%
3,"O=C(Cn1ccn2ccc(-c3ccc(F)c(Cl)c3)c2c1=O)N1CCCC1 [Example 392, 8-(3-chloro-4-fluorophenyl)-2-(2-oxo-2-(pyrrolidin-1-yl)ethyl)pyrrolo[1,2-a]pyrazin-1(2H)-one]",118%
4,"O=C(Cn1cnc2ccn(-c3ccc(Cl)cc3)c2c1=O)NC1CC1 [Example 375, 2-(5-(4-chlorophenyl)-4-oxo-4,5-dihydro-3H-pyrrolo[3,2-d]pyrimidin-3-yl)-N-cyclopropylacetamide]",0%
5,"O=C(Cn1ncc2scc(-c3ccc(Cl)c(F)c3)c2c1=O)N1CC(F)(F)C1 [Example 340, 3-(4-chloro-3-fluorophenyl)-5-(2-(3,3-difluoroazetidin-1-yl)-2-oxoethyl)thieno[2,3-d]pyridazin-4(5H)-one]",3%
6,"CC1(NC(=O)OC(C)(C)C)CN(C(=O)Cn2ccc3scc(-c4ccc(Cl)c(Cl)c4)c3c2=O)C1 [Example 73, tert-butyl (1-(2-(3-(3,4-dichlorophenyl)-4-oxothieno[3,2-c]pyridin-5(4H)-yl)acetyl)-3-methylazetidin-3-yl)carbamate]",9.8%
7,"COC1CN(C(=O)Cn2cnc3csc(-c4ccc(Cl)cc4)c3c2=O)C1 [Example 351, 5-(4-chlorophenyl)-3-(2-(3-methoxyazetidin-1-yl)-2-oxoethyl)thieno[3,4-d]pyrimidin-4(3H)-one]",1%
8,"O=C(Cn1cnc2c(Br)sc(-c3ccc(Cl)c(F)c3)c2c1=O)N1CCCC1 [Example 368, 7-bromo-5-(4-chloro-3-fluorophenyl)-3-(2-oxo-2-(pyrrolidin-1-yl)ethyl)thieno[3,4-d]pyrimidin-4(3H)-one]",41%
9,"Cc1cc(-c2csc3ccn(CC(=O)N4CC(F)(CF)C4)c(=O)c23)cnc1F [Example 89, 5-(2-(3-fluoro-3-(fluoromethyl)azetidin-1-yl)-2-oxoethyl)-3-(6-fluoro-5-methylpyridin-3-yl)thieno[3,2-c]pyridin-4(5H)-one]",16%
10,"O=C(Cn1ccc2scc(-c3ccc(Cl)c(F)c3)c2c1=O)N1CC(F)(F)C1 [Example 6, 3-(4-chloro-3-fluorophenyl)-5-(2-(3,3-difluoroazetidin-1-yl)-2-oxoethyl)thieno[3,2-c]pyridin-4(5H)-one]",41%
11,"O=C(Cn1cnc2csc(-c3ccc(Cl)cc3)c2c1=O)N1CC(F)(F)C1 [Example 348, 5-(4-chlorophenyl)-3-(2-(3,3-difluoroazetidin-1-yl)-2-oxoethyl)thieno[3,4-d]pyrimidin-4(3H)-one]",26%
12,"O=C(Cn1ccc2scc(-c3ccc(Cl)c(Cl)c3)c2c1=O)N1CC(F)(C2CC2)C1 [Example 49, 5-(2-(3-cyclopropyl-3-fluoroazetidin-1-yl)-2-oxoethyl)-3-(3,4-dichlorophenyl)thien-o[3,2-c]pyridin-4(5H)-one]",26%
13,"CC1CN(C(=O)Cn2ccc3scc(-c4ccc(Cl)c(Cl)c4)c3c2=O)C1 [Example 59, 3-(3,4-dichlorophenyl)-5-(2-(3-methylazetidin-1-yl)-2-oxoethyl)thieno[3,2-c]pyridin-4(5H)-one]",110%
14,"CC1(F)CN(C(=O)Cn2ccn3cnc(-c4ccc(Cl)c(Cl)c4)c3c2=O)C1 [Example 447, 1-(3,4-dichlorophenyl)-7-(2-(3-fluoro-3-methylazetidin-1-yl)-2-oxoethyl)imidazo[1,5-a]pyrazin-8(7H)-one]",58%

# Other lines, results leading:
row,Response Recovered (%),SMILES
1,91%,"O=C(Cn1ccc2[nH]cc(-c3ccc(F)c(C(F)(F)F)c3)c2c1=O)N1CCCC1 [Example 219, 3-(4-fluoro-3-(trifluoromethyl)phenyl)-5-(2-oxo-2-(pyrrolidin-1-yl)ethyl)-1H-pyrrolo[3,2-c]pyridin-4(5H)-one]"
2,41%,"O=C(Cn1ccc2cccc(-c3ccc(F)c(Cl)c3)c2c1=O)N1CC(F)(F)C1 [Example 309, 8-(3-chloro-4-fluorophenyl)-2-(2-(3,3-difluoroazetidin-1-yl)-2-oxoethyl)isoquinolin-1(2H)-one]"
3,40%,"O=C(Cn1ccc2cccc(-c3ccc(F)c(Cl)c3)c2c1=O)N1CCC(F)C1 (stereo not shown) [Example 302, 8-(3-chloro-4-fluorophenyl)-2-(2-(3-fluoropyrrolidin-1-yl)-2-oxoethyl)isoquinolin-1(2H)-one]"
4,8.3%,"O=C(Cn1cc(N2CCC2)c2scc(-c3ccc(F)c(C(F)(F)F)c3)c2c1=O)N1CCC(F)C1 (stereo not shown) [Example 115, 7-(azetidin-1-yl)-3-[4-fluoro-3-(trifluoromethyl)phenyl]-5-[2-(3-fluoropyrrolidin-1-yl)-2-oxoethyl]-4H,5H-thieno[3,2-c]pyridin-4-one]"
5,66%,CCn1cc(-c2ccc(F)c(C(F)(F)F)c2)c2c(=O)n(CC(=O)N3CCC(F)C3)cnc21 (stereo not shown) [Example 184]
6,34%,"O=C(Cn1ccc2scc(-c3ccc(Cl)s3)c2c1=O)N1CCC(F)C1 (stereo not shown) [Example 31, 3-(5-chlorothiophen-2-yl)-5-(2-(3-fluoropyrrolidin-1-yl)-2-oxoethyl)thieno[3,2-c]pyridin-4(5H)-one]"
7,70%,"COCn1cc(-c2ccc(Cl)c(Cl)c2)c2c(=O)n(CC(=O)N3CCC(F)C3)ccc21 (stereo not shown) [Example 249, 3-(3,4-dichlorophenyl)-5-(2-(3-fluoropyrrolidin-1-yl)-2-oxoethyl)-1-(methoxymethyl)-1H-pyrrolo[3,2-c]pyridin-4(5H)-one]"
8,34%,"O=C(Cn1cnc2csc(-c3ccc(Cl)c(C(F)(F)F)c3)c2c1=O)N1CCCC1 [Example 366, 5-(4-chloro-3-(trifluoromethyl)phenyl)-3-(2-oxo-2-(pyrrolidin-1-yl)ethyl)thieno[3,4-d]pyrimidin-4(3H)-one]"
9,2%,"O=C(Cn1cnc2csc(-c3ccc(C(F)(F)F)cc3)c2c1=O)N1CCCC1C(F)(F)F (stereo not shown) [Example 357, 3-(2-oxo-2-(2-(trifluoromethyl)pyrrolidin-1-yl)ethyl)-5-(4-(trifluoromethyl)phenyl)thieno[3,4-d]pyrimidin-4(3H)-one]"
10,47%,"O=C(Cn1ccc2[nH]cc(-c3ccc(Cl)c(F)c3)c2c1=O)N1CCC(F)C1 (stereo not shown) [Example 204, 3-(4-chloro-3-fluorophenyl)-5-(2-(3-fluoropyrrolidin-1-yl)-2-oxoethyl)-1H-pyrrolo[3,2-c]pyridin-4(5H)-one]"
11,16%,"O=C(Cn1cnc2csc(-c3ccc(Cl)c(F)c3)c2c1=O)N1CC(F)(F)C1 [Example 363, 5-(4-chloro-3-fluorophenyl)-3-(2-(3,3-difluoroazetidin-1-yl)-2-oxoethyl)thieno[3,4-d]pyrimidin-4(3H)-one]"
12,9%,"O=C(Cn1cnc2cccc(-c3ccc(Cl)cc3)c2c1=O)N1CCCC1F (stereo not shown) [Example 298, 5-(4-chlorophenyl)-3-(2-(2-fluoropyrrolidin-1-yl)-2-oxoethyl)quinazolin-4(3H)-one]"
13,49%,"Cc1nnc(-n2cc(-c3ccc(F)c(Cl)c3)c3c(=O)n(CC(=O)N4CCC(F)C4)ccc32)o1 (stereo not shown) [Example 264, 3-(3-chloro-4-fluorophenyl)-5-(2-(3-fluoropyrrolidin-1-yl)-2-oxoethyl)-1-(5-methyl-1,3,4-oxadiazol-2-yl)-1H-pyrrolo[3,2-c]pyridin-4(5H)-one]"
14,52%,"Cc1cn(CC(=O)N2CCC(F)C2)c(=O)c2c(-c3ccc(F)c(Cl)c3)cc(Br)n12 (stereo not shown) [Example 415, 6-bromo-8-(3-chloro-4-fluorophenyl)-2-(2-(3-fluoropyrrolidin-1-yl)-2-oxoethyl)-4-methylpyrrolo[1,2-a]pyrazin-1(2H)-one]"
15,−3.9%,"CCC1(F)CN(C(=O)Cn2ccn3c(C)nc(-c4ccc(F)c(Cl)c4)c3c2=O)C1 [Example 431, 1-(3-chloro-4-fluorophenyl)-7-(2-(3-ethyl-3-fluoroazetidin-1-yl)-2-oxoethyl)-3-methylimidazo[1,5-a]pyrazin-8(7H)-one]"
16,72%,"Cc1nnc(-n2cc(-c3ccc(F)c(C(F)(F)F)c3)c3c(=O)n(CC(=O)N4CCC(F)C4)ccc32)o1 (stereo not shown) [Example 263, 3-(4-fluoro-3-(trifluoromethyl)phenyl)-5-(2-(3-fluoropyrrolidin-1-yl)-2-oxoethyl)-1-(5-methyl-1,3,4-oxadiazol-2-yl)-1H-pyrrolo[3,2-c]pyridin-4(5H)-one]"
17,51%,"O=C(Cn1ccn2ccc(-c3ccc(F)c(C(F)(F)F)c3)c2c1=O)N1CCC(F)C1 (stereo not shown) [Example 390, 8-(4-fluoro-3-(trifluoromethyl)phenyl)-2-(2-(3-fluoropyrrolidin-1-yl)-2-oxoethyl)pyrrolo[1,2-a]pyrazin-1(2H)-one]"
18,7%,O=C(Cn1cnc2c(c(-c3ccc(Cl)c(F)c3)cn2CCO)c1=O)N1CCCC1 [Example 197]
19,27%,"O=C(Cn1cc(CN2CCC2)c2scc(-c3ccc(Cl)c(Cl)c3)c2c1=O)N1CCC(F)C1 (stereo not shown) [Example 122, 7-(azetidin-1-ylmethyl)-3-(3,4-dichlorophenyl)-5-(2-(3-fluoropyrrolidin-1-yl)-2-oxoethyl)thieno[3,2-c]pyridin-4(5H)-one]"
20,120%,"CC1(F)CN(C(=O)Cn2ccc3c(c(-c4ccc(F)c(Cl)c4)cn3C3COC3)c2=O)C1 [Example 282, 3-(3-chloro-4-fluorophenyl)-5-(2-(3-fluoro-3-methylazetidin-1-yl)-2-oxoethyl)-1-(oxetan-3-yl)-1,5-dihydro-4H-pyrrolo[3,2-c]pyridin-4-one]"
